Biological target: programmed cell death protein 1 (PD-1) (Homo sapiens, UniProt Q15116)
Experiment: SPR
Type: binding

programmed cell death protein 1 (PD-1), sequence (Q15116 25-288): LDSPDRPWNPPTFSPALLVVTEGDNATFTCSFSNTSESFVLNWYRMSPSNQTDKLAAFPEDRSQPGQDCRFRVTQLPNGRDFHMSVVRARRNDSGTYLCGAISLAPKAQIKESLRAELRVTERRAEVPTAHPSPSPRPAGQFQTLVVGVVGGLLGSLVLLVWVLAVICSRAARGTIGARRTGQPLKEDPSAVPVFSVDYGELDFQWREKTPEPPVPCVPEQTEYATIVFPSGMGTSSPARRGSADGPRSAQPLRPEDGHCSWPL

Structure (SMILES): C/C(O)=C(\C#N)C(=O)Nc1ccc(C(F)(F)F)cc1 [TER, teriflunomide]
- Kd: 1.47 nM
